Data from US20170360671A1, “METHOD FOR PREPARING 3,6-ANHYDRO-L-GALACTOSE, AND USE THEREOF” (Korea University Research and Business Foundation, priority 2012, published 2017).

System: mushroom-derived tyrosinase
Experiment: In vitro (cell-free) tyrosinase activity assay with L-tyrosine as substrate
Type: biochemical
Settings: 200 μM
Protocol: The in vitro tyrosinase analyses were performed using a slight modification of the reported method (Ishihara Y et al., The journal of antibiotics (Tokyo) 1991; 44:25-32; An S M, Koh J S, Boo Y C, Phytotherapy Research 2010; 24:1175-1180). In brief, 250 μl of a 0.1M potassium phosphate buffer (pH 6.8) was put into a 24-well plate, and 25 μl of a mushroom-derived tyrosinase (2,000 units/mL), 25 μl of a sample, and 225 μl of distilled water were put into each well. The plate was incubated at 25° C. for 10 minutes, and 25 μl of 1 mM L-tyrosine used as a substrate was added to the wells. Then, the plate was incubated at 25° C. for 10 minutes, and the optical density of each well measured at 475 nm using a microplate reader (Sunrise-Basic Tecan, Austria). Each of the measured values was represented by a variation (%) with respect to the control. L-tyrosine was used as the substrate, and arbutin was used as the positive control. The results were represented by the relative tyrosinase activities to the non-treated control. Next, effects of L-AHG on the tyrosinase activities were examined using a cell-free assay system. Many reports disclosed that the mushroom-derived tyrosinase was primarily used as a model since it was able to be used in the form of a tablet. […] The results were represented by the relative tyrosinase activities to the non-treated control. […]

## OC[C@H]1O[C@@H](Oc2ccc(O)cc2)[C@H](O)[C@@H](O)[C@@H]1O [arbutin]
  tyrosinase activities relative to the non-treated control: 40%
